# Laboratory results: patent publication US20240270792A1, “SHORT ANTIMICROBIAL PEPTIDES” (priority 2021, published 2024)
# Square brackets hold non-standard residues; d marks the D form. Ends that are not written are not given here. Peptide text beside a SMILES is read from it. hPhe = N[C@@H](CCc1ccccc1)C(=O)O; αMeF = C[C@](N)(Cc1ccccc1)C(=O)O
# How the values were obtained:
# [1] = test system: Escherichia coli ATCC 25922; type: cell-based; details: Gram-negative, 18-24 hrs at 37° C.
# Source text: (§1) The following strains were used: • Gram-negative bacteria: Escherichia coli ATCC 25922, Pseudomonas aeruginosa ATCC 27853, Acinetobacter baumannii ATCC 19606, Klebsiella pneumoniae ATCC 13883, • Gram-positive bacteria: Staphylococcus aureus ATCC 25923, multi-drug resistant Staphylococcus aureus ATCC BAA-44, Streptococcus pyogenes ATCC 19615, Listeria ivanovii Li4pVS2, Enterococcus faecalis ATCC 29212,
# (§2) For each strain, a standard inoculum of approximately 10^6 bacteria/mL (exponential growth phase) was prepared. To this end, a colony isolated on LB agar previously inoculated with one of the strains was cultured in 4 ml of LB broth medium, except for S. pyogenes and L. ivanovii which were grown in BHI (Brain Heart Infusion) from a colony isolated on BHI agar. Liquid cultures were then incubated for 2 to 3 hrs at 37° C. with shaking for the bacteria to reach exponential growth phase. After centrifugation, most of the bacterial suspensions were diluted in Mueller-Hinton (MH) broth medium to an OD630nm of 0.01, which corresponds to a concentration of approximately 10^6 cfu/mL (cfu: colony forming unit). A different medium was used for E. faecalis (LB) and for S. pyogenes and L. ivanovii (BHI).
# (§3) The minimum inhibitory concentration (MIC) of each peptide was determined by a test of growth inhibition in broth medium. […] The test was performed in a sterile 96-well microtiter plate. A series of increasing concentrations of peptide (2 to 400 μM) was first prepared in sterile MilliQ water. 50 μL of each peptide concentration were mixed into the well with 50 μL of bacterial suspension (10^6 cfu/ml). The microtiter plate was then incubated for 18-24 hrs at 37° C. with shaking. Bacterial growth was determined by measuring OD at 630 nm (turbidity) on a plate reader. Tests were carried out in triplicate for each peptide concentration and at least three independent experiments were performed to determine the MIC value.
# (§4) The growth inhibition negative control was obtained by replacing the solution containing the peptide with 50 μL of sterile MilliQ water. The positive control allowing the complete inhibition of bacterial growth was obtained by replacing the solution containing the peptide with 50 μL, of 0.7% formaldehyde.
# [2] = test system: Enterococcus faecalis ATCC 29212; type: cell-based; details: Gram-positive, LB, 18-24 hrs at 37° C.
# Source text: as §1, §2, §3, §4
# [3] = test system: Streptococcus pyogenes ATCC 19615; type: cell-based; details: Gram-positive, BHI, 18-24 hrs at 37° C.
# Source text: as §1, §2, §3, §4
# [4] = test system: Staphylococcus aureus; type: cell-based; details: Gram-positive, 18-24 hrs at 37° C.
# Source text: as §1, §2, §3, §4
# [5] = test system: Listeria ivanovii Li4pVS2; type: cell-based; details: Gram-positive, BHI, 18-24 hrs at 37° C.
# Source text: as §1, §2, §3, §4
# [6] = test system: Pseudomonas aeruginosa ATCC 27853; type: cell-based; details: Gram-negative, 18-24 hrs at 37° C.
# Source text: as §1, §2, §3, §4
# [7] = test system: Acinetobacter baumannii ATCC 19606; type: cell-based; details: Gram-negative, 18-24 hrs at 37° C.
# Source text: as §1, §2, §3, §4
# [8] = Cytotoxicity assay: hemolysis of erythrocytes; type: cell-based; details: 50% hemolysis, human erythrocytes, 1 h at 37° C., pH 7.4; read-out: LC50 Erythrocytes Human
# Description: Hemolytic experiments were performed using human erythrocytes obtained from healthy adult donors (Etablissement Français du sang, Paris, France) according to a previously described protocol (Abbassi et al., “Isolation, characterization and molecular cloning of new temporins from the skin of the North African ranid Pelophylax saharica”, Peptides, 2008, 29: 1526-33).
# Briefly, synthetic peptides (1-200 μM, final concentrations) were incubated (100 μL, final volume) with erythrocytes (2×10^7 cells) in Dulbecco's phosphate-buffered saline (pH 7.4) for 1 h at 37° C. After centrifugation (12,000×g, 15 s), the absorbance of the supernatant was measured at 450 nm.
# [9] = test system: Klebsiella pneumoniae ATCC 13883; assay: MIC, growth inhibition in broth medium; type: cell-based; details: Gram-negative, 18-24 hrs at 37° C.
# Source text: as §1
# as §2, with “A different medium was used for E. faecalis (LB) and for S. pyogenes and L. ivanovii (BHI).” left out
# The minimum inhibitory concentration (MIC) of each peptide was determined by a test of growth inhibition in broth medium. […] Bacterial growth was determined by measuring OD at 630 nm (turbidity) on a plate reader. […]
# [10] = test system: Gram-positive and Gram-negative bacteria; details: cited from earlier work
Compound,MIC EC [1],MIC EF [2],MIC SP [3],MIC SA [4],MIC LI [5],MIC PA [6],MIC AB [7],HC50 at 1 h [8],MIC KP [9],CC50 at 1 h [8],antimicrobial activity [10]
CC[C@H](C)[C@H](NC(=O)[C@H](CCCNC(=N)N)NC(=O)[C@H](CO)NC(=O)[C@H](CC(C)C)NC(=O)[C@H](Cc1ccccc1)NC(=O)[C@H](Cc1ccccc1)NC(=O)[C@@H](N)Cc1ccccc1)C(=O)N[C@@H](Cc1ccccc1)C(N)=O [compound 2],50 µM,100 µM,25 µM,25 µM,50 µM,>100 µM,>100 µM,> 200 µM,–,–,–
CC[C@H](C)[C@H](NC(=O)[C@H](CCCNC(=N)N)NC(=O)[C@H](CCCNC(=N)N)NC(=O)[C@H](CC(C)C)NC(=O)[C@H](CCc1ccccc1)NC(=O)[C@H](Cc1ccccc1)NC(=O)[C@@H](N)Cc1ccccc1)C(=O)N[C@@H](Cc1ccccc1)C(N)=O [compound 19],12.5 µM,–,12.5 µM,6.25 µM,–,25 µM,25 µM,170 µM,–,–,–
N=C(N)NCCC[C@H](NC(=O)[C@H](CCCNC(=N)N)NC(=O)[C@H](Cc1ccccc1)NC(=O)[C@H](Cc1ccccc1)NC(=O)[C@H](Cc1ccccc1)NC(=O)[C@@H](N)Cc1ccccc1)C(=O)N[C@@H](Cc1ccccc1)C(=O)N[C@@H](Cc1ccccc1)C(N)=O [compound 39],12.5 µM,50 µM,3 µM,6.25 µM,12.5 µM,12.5 µM,25 µM,> 200 µM,–,–,–
N=C(N)NCCC[C@H](NC(=O)[C@H](CCCNC(=N)N)NC(=O)[C@H](Cc1ccccc1)NC(=O)[C@H](CCCNC(=N)N)NC(=O)[C@H](Cc1ccccc1)NC(=O)[C@@H](N)Cc1ccccc1)C(=O)N[C@@H](Cc1ccccc1)C(=O)N[C@@H](Cc1ccccc1)C(N)=O [compound 50],–,100 µM,6.25 µM,6.25 µM,–,12.5 µM,100 µM,> 200 µM,–,–,–
N=C(N)NCCC[C@H](NC(=O)[C@H](CCCNC(=N)N)NC(=O)[C@H](Cc1ccccc1)NC(=O)[C@H](Cc1ccccc1)NC(=O)[C@H](CCc1ccccc1)NC(=O)[C@@H](N)Cc1ccccc1)C(=O)N[C@@H](Cc1ccccc1)C(=O)N[C@@H](Cc1ccccc1)C(N)=O [compound 51] (H-F[hPhe]FFRRFF-NH2; N-terminus assumed),–,–,–,–,–,–,–,–,25 µM,159 µM,–
N=C(N)NCCC[C@H](NC(=O)[C@H](CCCNC(=N)N)NC(=O)[C@H](Cc1ccccc1)NC(=O)[C@H](CCc1ccccc1)NC(=O)[C@H](Cc1ccccc1)NC(=O)[C@@H](N)Cc1ccccc1)C(=O)N[C@@H](Cc1ccccc1)C(=O)N[C@@H](Cc1ccccc1)C(N)=O [compound 53],12.5 µM,50 µM,6.25 µM,3 µM,–,12.5 µM,12.5 µM,140 µM,–,–,–
"FF(α-MeF)LSRIFamide (FF[αMeF]LSRIF-NH2; N-terminus assumed; SMILES CC[C@H](C)[C@H](NC(=O)[C@H](CCCNC(=N)N)NC(=O)[C@H](CO)NC(=O)[C@H](CC(C)C)NC(=O)[C@](C)(Cc1ccccc1)NC(=O)[C@H](Cc1ccccc1)NC(=O)[C@@H](N)Cc1ccccc1)C(=O)N[C@@H](Cc1ccccc1)C(N)=O) [SEQ ID No 7, excluded known SHf analog]",–,–,–,–,–,–,–,–,–,–,"strong activity against Gram-positive and Gram-negative bacteria, including Klebsiella pneumoniae"
FFFFKRFF-NH2 [compound 42],–,>100 µM,12.5 µM,6.25 µM,–,12.5 µM,–,> 200 µM,–,–,–
FFFFRKFF-NH2 [compound 43],–,100 µM,12.5 µM,–,–,12.5 µM,12.5 µM,> 200 µM,–,–,–
FFFFSRFF-NH2 [compound 34],>100 µM,100 µM,6.25 µM,12.5 µM,25 µM,>100 µM,>100 µM,> 200 µM,–,–,–
FFFRRRFF-NH2 [compound 38],25 µM,>100 µM,12.5 µM,–,–,25 µM,100 µM,> 200 µM,–,–,–
FFRRFFFF-NH2 [compound 41],12.5 µM,50 µM,6.25 µM,6.25 µM,–,12.5 µM,12.5 µM,> 200 µM,–,–,–
FRFFRRFF-NH2 [compound 49],–,>100 µM,25 µM,–,–,6.25 µM,–,> 200 µM,–,–,–
FRFRFRFF-NH2 [compound 55],–,>100 µM,12.5 µM,3 µM,–,–,–,> 200 µM,–,–,–
FRFRFRFR-NH2 [compound 56],3 µM,30 µM,6.25 µM,–,–,–,25 µM,> 200 µM,–,–,–
RFFFRRFF-NH2 [compound 72],–,>100 µM,25 µM,6.25 µM,–,12.5 µM,100 µM,> 200 µM,–,–,–
